Structures can show the parent of a compound that is named as a salt.
System: not given
Assay: not given
Details: not given

| melting point [°C] | SMILES |
| --- | --- |
| 140.5 to 141.5 | c1cncc(-c2ccc3c(-c4cccnc4)coc3c2)c1 [Example 7, 3-[6-(3-pyridyl)benzo[b]furan-3-yl]pyridine] |

Biological target: T1, steroid 17α-hydroxylase and/or steroid C17-20 lyase (Rattus norvegicus, UniProt P11715)
T1 construct: the testis of rats (SD, male) was homogenized and centrifuged to obtain microsome; from tissue; host or cells: rat (SD, male) testis microsomes
T1 sequence (P11715 1-507): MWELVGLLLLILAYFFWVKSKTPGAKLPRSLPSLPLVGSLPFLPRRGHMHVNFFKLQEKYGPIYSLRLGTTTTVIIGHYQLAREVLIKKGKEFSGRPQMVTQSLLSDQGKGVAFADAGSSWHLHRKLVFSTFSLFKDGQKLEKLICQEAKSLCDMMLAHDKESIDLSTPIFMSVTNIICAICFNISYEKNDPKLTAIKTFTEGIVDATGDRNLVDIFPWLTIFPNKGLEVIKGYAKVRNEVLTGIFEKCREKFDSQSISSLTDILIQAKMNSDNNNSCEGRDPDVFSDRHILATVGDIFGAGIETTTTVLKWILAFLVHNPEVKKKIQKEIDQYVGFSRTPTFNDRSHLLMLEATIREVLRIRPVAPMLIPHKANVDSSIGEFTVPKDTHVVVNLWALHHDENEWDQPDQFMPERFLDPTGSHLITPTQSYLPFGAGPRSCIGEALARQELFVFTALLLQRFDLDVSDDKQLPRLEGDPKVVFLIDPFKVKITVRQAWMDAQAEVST
Assay: Measurement of steroid 17α-hydroxylase and/or steroid C17-20 lyase inhibitory activity (rat testis microsome)
Assay type: biochemical
Details: test compound 300 nM, substrate 25 μM 17α-hydroxyprogesterone, NADPH 500 μM
Procedure: An experiment was carried out according to the method of T. Sergejew and R. W.
Hartmann (J. Enzyme Inhibition, 8, 113 (1994)). That is, the testis of rats (SD, male) was homogenized and centrifuged to obtain microsome. Each compound of the present invention prepared in Examples 1-13 was put into a micro tube (1.5 ml, Eppendorf Co.). After the addition of 100 μl of microsome protein solution, the concentration of which was adjusted to 0.1 mg/ml using 50 mM phosphate buffer solution (pH 7.4), 140 μl of 125 nmol NADPH solution, and 10 μl of 6.25 nmol 17α-hydroxyprogesterone, the mixture was incubated at 37° C. for 20 minutes. 50 μl of 1N hydrochloric acid and 1000 μl of ethyl acetate were sequentially added to the mixture. The mixture was shaken and centrifuged. The ethyl acetate layer was then washed with 250 μl of 50 mM phosphate buffer solution (pH 7.4) and 50 μl of IN hydrochloric acid, centrifuged, and concentrated. The concentrate was dissolved in 100 μl of acetonitrile. 10 μl of this solution was charged to high performance liquid chromatography. The amounts of the substrate and the formed product (androstenedione and testosterone) were measured to determine the enzyme activity. A sample without the test compound added was provided as a control. Steroid 17α-hydroxylase and/or steroid C17-20 lyase inhibitory activity (%) was calculated from the amounts of each substrate and product using the following equation (1). [formula]

| inhibition at 0.3 µM [%] | SMILES |
| --- | --- |
| 90 | Nc1cccc(-c2ccc3c(-c4cccnc4)coc3c2)c1 [Example 6, 3-[3-(3-pyridyl)benzo[b]furan-6-yl]phenylamine] |
| 75 | c1cncc(-c2ccc3c(-c4cccnc4)coc3c2)c1 [Example 7, 3-[6-(3-pyridyl)benzo[b]furan-3-yl]pyridine] |
| 89 | c1cncc(-c2coc3cc(-c4ccsc4)ccc23)c1 [Example 13, 3-[6-(3-thienyl)benzo[b]furan-3-yl]pyridine hydrochloride] |
| 45 | Fc1cccc(-c2ccc3c(-c4cccnc4)coc3c2)c1 [Example 4, 3-[6-(3-fluorophenyl)benzo[b]furan-3-yl] Pyridine] |
| 66 | Oc1ccc(-c2ccc3c(-c4cccnc4)coc3c2)cc1O [Example 12, 4-[3-(3-pyridyl)benzo[b]furan-6-yl]-1,2-benzenediol hydrobromide] |
| 45 | c1ccc(-c2ccc3c(-c4cccnc4)coc3c2)cc1 [Example 9, 3-(6-phenylbenzo[b]furan-3-yl)pyridine] |
| 64 | Fc1ccc(-c2ccc3c(-c4cccnc4)coc3c2)cc1 [Example 3, 3-[6-(4-fluorophenyl)benzo[b]furan-3-yl] Pyridine] |
| 81 | Oc1cccc(-c2ccc3c(-c4cccnc4)coc3c2)c1 [Example 11, 3-[3-(3-pyridyl)benzo[b]furan-6-yl]phenol] |
